Results taken from PubChem BioAssay (NCI).
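Each compound was tested at five concentrations against cells in 96-well plates for 48 hours. TGI denotes the concentration required for complete inhibition of growth.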

Experiments:
Test in all cases: NCI anticancer screen, dose series, 48 h
SK-MEL-5 melanoma = tested on: SK-MEL-5 melanoma
MALME-3M melanoma = tested on: MALME-3M melanoma
HCT-116 colon = tested on: HCT-116 colon
HCC-2998 colon = tested on: HCC-2998 colon
OVCAR-4 ovarian = tested on: OVCAR-4 ovarian
HCT-15 colon = tested on: HCT-15 colon
CAKI-1 renal = tested on: CAKI-1 renal
KM20L2 colon = tested on: KM20L2 colon
A549 NSCLC = tested on: A549 NSCLC
786-0 renal = tested on: 786-0 renal
HOP-92 NSCLC = tested on: HOP-92 NSCLC
CCRF-CEM leukemia = tested on: CCRF-CEM leukemia
NCI-H522 lung = tested on: NCI-H522 lung
SK-OV-3 ovarian = tested on: SK-OV-3 ovarian
UO-31 renal = tested on: UO-31 renal
RXF 393 renal = tested on: RXF 393 renal
SK-MEL-2 melanoma = tested on: SK-MEL-2 melanoma

Measured: TGI

N#Cc1ccccc1NC(=O)C(=O)C(C(=O)c1ccncc1)C1OC(=O)c2ccccc21 (stereo not drawn)
not listed: SK-MEL-2 melanoma
> 100 µM: all other assays above

Cc1cccc(N=Cc2ccc(N(CCC#N)S(=O)(=O)c3ccccc3)cc2C)c1
not listed: RXF 393 renal
> 100 µM: all other assays above

CO/N=C(/C(=O)Nc1c[n+](CC(=O)[O-])cs1)c1csc(N)n1
not listed: OVCAR-4 ovarian | RXF 393 renal
> 100 µM: all other assays above

CSc1nc(NC2OCC(OC(C)=O)C(OC(C)=O)C2OC(C)=O)c2c(n1)OCC2=O (stereo not drawn)
not listed: OVCAR-4 ovarian | HOP-92 NSCLC
> 100 µM: all other assays above

Nc1ccn(CCOC(c2ccccc2)P(=O)(O)O)c(=O)n1 (stereo not drawn)
not listed: OVCAR-4 ovarian | HOP-92 NSCLC
> 100 µM: all other assays above

CS(=O)(=O)NNS(=O)(=O)c1ccc(F)cc1
not listed: HOP-92 NSCLC | SK-OV-3 ovarian
> 100 µM: all other assays above

CN/N=C(\C)C(CN1CCCCC1)C(C1=C(O)c2ccccc2OC1)c1ccccc1 (stereo not drawn)
not listed: HOP-92 NSCLC
> 100 µM: all other assays above
